Data taken from paper PMC9701179, “New tricyclic systems as photosensitizers towards triple negative breast cancer cells” (Archives of Pharmacal Research, 2022).
Entries after “also recorded” stand apart in the source; their conditions may differ.

What was measured:
MDA-MB-231 cells [1] = assay: Intracellular ROS production (CM-H2DCFDA) under UVA; assay type: cell-based, human; conditions: MDA-MB-231, 25 µM, 90 min, UVA 2.0 J/cm^2; antimycin 3 µM positive control
Experimental: The production of ROS was measured in MDA-MB-231 cells (10^4 per well) grown for 24 h in a 96-well plate in RPMI medium without phenol red (Merk, Germany). Cells were then washed with PBS and loaded with 10 μM 5-(and-6)-chloromethyl-2′,7′-dichlorodihydrofluorescein diacetate acetyl ester (CM–H2DCFDA) (Molecular Probes-Invitrogen, Eugene, OR) for 45 min, in the dark. Afterwards, cells were washed with PBS and incubated with tested compounds (25 µM) for 90 min and after that exposed to UVA light (2.0 J/cm^2). Fluorescence increase was estimated utilizing the wavelengths of 485 nm (excitation) and 527 nm (emission) in a VICTOR X3 (PerkinElmer, USA) plate reader. Antimycin (3 μM, Merk), a potent inhibitor of Complex III in the electron transport chain, was used as positive control.
ROS production under light (UVA, 2.0 J/cm^2) was evaluated in MDA-MB-231 cell samples treated with increasing concentrations of tested compounds or antimycin, a potent inhibitor of Complex III of mitochondria electron chain, used as a positive control under the same experimental conditions (Fig. 4).
Fig. 4 Cellular ROS production (A) and total thiol redox state (B). A Effect of UVA activated tested compounds (25 µM) or antimycin (3 µM) on hydrogen peroxide formation in MDA-MB-231 cancer cells. B Sulfhydryl content in MDA-MB-231 cancer cells incubated for 24 h with UVA activated tested compounds. The sulfhydryl group amount was determined by the DTNB assay. Error bars indicate S.D

[2] = UVA photostability (UV-Vis spectra in PBS); assay type: physicochemical; conditions: for Stability under UVA irradiation (UV-Vis spectra): 2.2 × 10^−5 M, increasing UVA doses 0–20 J/cm^2; for Photodegradation at the light dose of the cytotoxic experiments: UVA 2 J/cm^2, decrease of absorbance of main UV-Vis peaks (data not shown)
Experimental: Samples containing each compound (2.2 × 10^− 5 M) dissolved in PBS (0.04 M) were irradiated with increasing UVA doses from 0 to 20 J/cm^2 ([…], 5, 10, 15 and 20 J/cm^2), and their absorption spectrum was measured, with a Cary 50 Scan UV–Visible Spectrophotometer.
The most significant 7h and 8e pyridone derivatives were tested for their stability under UVA irradiation. […] Moreover, isosbestic points were visible, indicating the formation of one or more new stable species in equilibrium with the intact dark compound.
Fig. 6 UV–Vis Absorption spectra of 7h (left) and 8e (right) in PBS irradiated under 0, 2, 5, 10, 15 and 20 J/cm^2 with UVA light. 0 J/cm^2, red spectrum; 20 J/cm^2, light green spectrum

MDA-MB-231 cells [3] = assay: Mitochondrial membrane potential (Mito-ID kit); assay type: cell-based, human; conditions: MDA-MB-231, UVA 2.0 J/cm^2; CCCP positive control
Experimental: The ΔΨ was assayed using the Mito-ID® Membrane Potential Kit according to the manufacturer’s instructions (Enzo Life Sciences, Farmingdale, NY, USA) as previously described. Briefly, MDA-MB-231 cells (8 × 10^3 per well) were seeded in 96-well plates; after 24 h, cells were washed with PBS and loaded with Mito-ID Detection Reagent for 30 min at 37 °C in the dark. Afterwards, cells were incubated with increasing concentrations of tested compounds for 90 min and after that exposed to UVA light (2.0 J/cm^2). CCCP (Carbonyl cyanide 3-chlorophenyl-hydrazone) was used as positive control. Fluorescence intensity was estimated using a VICTOR X3 (PerkinElmer, USA) plate reader at 490 (excitation) and 590 nm (emission).
Induction of ROS production can in turn prompt the collapse of mitochondrial membrane potential as well as loss of mitochondrial integrity and functioning. […] MDA-MB-231 TNBC cells were treated with tested compounds upon UVA irradiation and the percentage of cells with hypopolarized mitochondrial membrane potential was determined fluorometrically by means of the Mito-ID® Membrane Potential Kit.
Fig. 5 Effects on mitochondrial membrane potential (A) and cell death induction (B) in human breast MDA-MB-231 cancer cells. A Cells were treated with 7h and 8e and stained with TMRM (10 nM). Fluorescence was estimated at 490 nm (excitation) and 590 nm (emission). Data are the means of five independent experiments. Error bars indicate S.D. * P < 0.05. B Cells were treated with concentrations of 7h and 8e equal to IC50 for 24 h and stained with the fluorescent dyes Hoechst 33342 and PI

| Compound | Cellular ROS production (hydrogen peroxide formation) (MDA-MB-231 cells [1]) | Stability under UVA irradiation (UV-Vis spectra) [2] | Photodegradation at the light dose of the cytotoxic experiments [2] | Cells with depolarized mitochondria (mitochondrial membrane potential) (MDA-MB-231 cells [3]) |
| --- | --- | --- | --- | --- |
| CCOC(=O)c1ccc2n1CCCc1cc(S(=O)(=O)c3ccccc3)c(OC)nc1-2 [Compound 8e, Ethyl 3-(benzenesulfonyl)-2-methoxy-6,7-dihydro-5H-pyrido[2,3-c]pyrrolo[1,2-a]azepine-9-carboxylate] | highest increase in cellular ROS production | very unstable under light | photodegradation was very weak | significant increase of cells with depolarized mitochondria |
| CCOC(=O)c1ccc2n1CCc1cc(S(=O)(=O)c3ccccc3)c(OC)nc1-2 [Compound 7h, Ethyl 3-(benzenesulfonyl)-2-methoxy-5,6-dihydropyrrolo[1,2-h][1,7]naphthyridine-8-carboxylate] | highest increase in cellular ROS production; also recorded: hydrogen peroxide content comparable to that induced by antimycin | very unstable under light | photodegradation was very weak | significant increase of cells with depolarized mitochondria |
